{"source": "patent US20140221361A1", "about": "“C-19 MODIFIED TRITERPENOIDS WITH HIV MATURATION INHIBITORY ACTIVITY” (priority 2013, published 2014)"}
{"tested_on": "recombinant NL4-3 virus (Renilla luciferase in nef, Gag P373S)", "experiment": "HIV cell culture assay (luciferase reporter, MT-2 cells)", "format": "cell-based, HIV-1", "details": "MT-2 cells infected for 4-5 days with NLRluc recombinants; luciferase activity; serial dilutions of inhibitor", "experimental": "(§1) MT-2 cells and 293T cells were obtained from the NIH AIDS Research and Reference Reagent Program. MT-2 cells were propagated in RPMI 1640 media supplemented with 10% heat inactivated fetal bovine serum, […]. The 293T cells were propagated in DMEM media supplemented with 10% heat inactivated fetal bovine serum (FBS), 100 units/ml penicillin G and 100 µg/ml streptomycin. The proviral DNA clone of NL4-3 was obtained from the NIH AIDS Research and Reference Reagent Program. A recombinant NL4-3 virus, in which a section of the nef gene from NL4-3 was replaced with the Renilla luciferase gene, was used as a reference virus. In addition, residue Gag P373 was converted to P373S. Briefly, the recombinant virus was prepared by transfection of the altered proviral clone of NL4-3. Transfections were performed in 293T cells using LipofectAMINE PLUS from Invitrogen (Carlsbad, Calif.), according to manufacturer's instruction. The virus was titered in MT-2 cells using luciferase enzyme activity as a marker. Luciferase was quantitated using the Dual Luciferase kit from Promega (Madison, Wis.), with modifications to the manufacturer's protocol. The diluted Passive Lysis solution was pre-mixed with the re-suspended Luciferase Assay Reagent and the re-suspended Stop & Glo Substrate (2:1:1 ratio). Fifty (50) μL of the mixture was added to each aspirated well on assay plates and luciferase activity was measured immediately on a Wallac TriLux (Perkin-Elmer). Antiviral activities of inhibitors toward the recombinant virus were quantified by measuring luciferase activity in cells infected for 4-5 days with NLRluc recombinants in the presence serial dilutions of the inhibitor.", "units": {"EC50": "nM"}}
{"smiles": "CC(CO)[C@@H]1CC[C@]2(NCCN3CCS(=O)(=O)CC3)CC[C@]3(C)[C@H](CC[C@@H]4[C@@]5(C)CC=C(c6ccc(C(=O)O)cc6)C(C)(C)[C@@H]5CC[C@]43C)[C@@H]12", "note": "(single isomer, unassigned) [Example B5]", "EC50": 1.15}
{"smiles": "CC(CC(=O)O)[C@@H]1CC[C@]2(C(=O)NCCN(C)C)CC[C@]3(C)[C@H](CC[C@@H]4[C@@]5(C)CC[C@H](c6ccc(C(=O)O)cc6)C(C)(C)[C@@H]5CC[C@]43C)[C@@H]12", "note": "(single isomer, unassigned) [Example 21]", "EC50": 40}
{"tested_on": "recombinant NL4-3 virus (Renilla luciferase in nef, Gag P373S)", "experiment": "HIV cell culture assay (luciferase reporter, MT-2 cells)", "format": "cell-based, HIV-1", "details": "Renilla, NL43, MT-2 cells infected for 4-5 days with NLRluc recombinants; luciferase activity; serial dilutions of inhibitor", "experimental": "as §1", "units": {"EC50": "nM"}}
{"smiles": "C=C(CNCCO)[C@@H]1CC[C@]2(C(=O)O)CC[C@]3(C)[C@H](CC[C@@H]4[C@@]5(C)CC=C(c6ccc(C(=O)O)cc6)C(C)(C)[C@@H]5CC[C@]43C)[C@@H]12", "note": "[Example 2, (1R,3aS,5aR,5bR,7aR,11aS,11bR,13aR,13bS)-9-(4-carboxyphenyl)-1-(3-(2-hydroxyethylamino)prop-1-en-2-yl)-5a,5b,8,8,11a-pentamethyl-2,3,3a,4,5,5a,5b,6,7,7a,8,11,11a,11b,12,13,13a,13b-octadecahydro-1H-cyclopenta[a]chrysene-3a-carboxylic acid]", "EC50": 140}
{"smiles": "C=C(CNCCN(C)C)[C@@H]1CC[C@]2(C(=O)O)CC[C@]3(C)[C@H](CC[C@@H]4[C@@]5(C)CC=C(c6ccc(C(=O)O)cc6)C(C)(C)[C@@H]5CC[C@]43C)[C@@H]12", "note": "[Example 5, (1R,3aS,5aR,5bR,7aR,11aS,11bR,13aR,13bS)-9-(4-carboxyphenyl)-1-(3-(2-(dimethylamino)ethylamino)prop-1-en-2-yl)-5a,5b,8,8,11a-pentamethyl-2,3,3a,4,5,5a,5b,6,7,7a,8,11,11a,11b,12,13,13a,13b-octadecahydro-1H-cyclopenta[a]chrysene-3a-carboxylic acid]", "EC50": 160}
{"smiles": "C=C(COCCN1CCOCC1)[C@@H]1CC[C@]2(C(=O)NCCNCCO)CC[C@]3(C)[C@H](CC[C@@H]4[C@@]5(C)CC=C(c6ccc(C(=O)O)cc6)C(C)(C)[C@@H]5CC[C@]43C)[C@@H]12", "note": "[Example 13, 4-((1R,3aS,5aR,5bR,7aR,11aS,11bR,13aR,13bS)-3a-(2-(2-hydroxyethylamino)ethylcarbamoyl)-5a,5b,8,8,11a-pentamethyl-1-(3-(2-morpholinoethoxy)prop-1-en-2-yl)-2,3,3a,4,5,5a,5b,6,7,7a,8,11,11a,11b,12,13,13a,13b-octadecahydro-1H-cyclopenta[a]chrysen-9-yl)benzoic acid]", "EC50": 1.97}
{"smiles": "CC1(C)C(c2ccc(C(=O)O)cc2)=CC[C@]2(C)[C@H]3CC[C@@H]4[C@H]5[C@H](c6nnco6)CC[C@]5(NCCN5CCS(=O)(=O)CC5)CC[C@@]4(C)[C@]3(C)CC[C@@H]12", "note": "[Example B31, 4-((1R,3aS,5aR,5bR,7aR,11aS,11bR,13aR,13bS)-3a-((2-(1,1-dioxidothiomorpholino)ethyl)amino)-5a,5b,8,8,11a-pentamethyl-1-(1,3,4-oxadiazol-2-yl)-2,3,3a,4,5,5a,5b,6,7,7a,8,11,11a,11b,12,13,13a,13b-octadecahydro-1H-cyclopenta[a]chrysen-9-yl)benzoic acid]", "EC50": 30}
{"smiles": "C=C(COCCN1CCOCC1)[C@@H]1CC[C@]2(C(=O)NCCC(=O)O)CC[C@]3(C)[C@H](CC[C@@H]4[C@@]5(C)CC=C(c6ccc(C(=O)O)cc6)C(C)(C)[C@@H]5CC[C@]43C)[C@@H]12", "note": "[Example 12, 4-((1R,3aS,5aR,5bR,7aR,11aS,11bR,13aR,13bS)-3a-(2-carboxyethylcarbamoyl)-5a,5b,8,8,11a-pentamethyl-1-(3-(2-morpholinoethoxy)prop-1-en-2-yl)-2,3,3a,4,5,5a,5b,6,7,7a,8,11,11a,11b,12,13,13a,13b-octadecahydro-1H-cyclopenta[a]chrysen-9-yl)benzoic acid]", "EC50": 140}
{"smiles": "COC(=O)NC(C)[C@@H]1CC[C@]2(NCCN3CCS(=O)(=O)CC3)CC[C@]3(C)[C@H](CC[C@@H]4[C@@]5(C)CC=C(c6ccc(C(=O)O)cc6)C(C)(C)[C@@H]5CC[C@]43C)[C@@H]12", "note": "(stereo partly drawn) [Example B22, 4-((1R,3aS,5aR,5bR,7aR,11aS,11bR,13aR,13bS)-3a-((2-(1,1-dioxidothiomorpholino)ethyl)amino)-1-(1-((methoxycarbonyl)amino)ethyl)-5a,5b,8,8,11a-pentamethyl-2,3,3a,4,5,5a,5b,6,7,7a,8,11,11a,11b,12,13,13a,13b-octadecahydro-1H-cyclopenta[a]chrysen-9-yl)benzoic acid]", "EC50": 1.02}
{"smiles": "C=C(CN(C)CCN(C)C)[C@@H]1CC[C@]2(C(=O)O)CC[C@]3(C)[C@H](CC[C@@H]4[C@@]5(C)CC=C(c6ccc(C(=O)O)cc6)C(C)(C)[C@@H]5CC[C@]43C)[C@@H]12", "note": "[Example 4, (1R,3aS,5aR,5bR,7aR,11aS,11bR,13aR,13bS)-9-(4-carboxyphenyl)-1-(3-((2-(dimethylamino)ethyl)(methyl)amino)prop-1-en-2-yl)-5a,5b,8,8,11a-pentamethyl-2,3,3a,4,5,5a,5b,6,7,7a,8,11,11a,11b,12,13,13a,13b-octadecahydro-1H-cyclopenta[a]chrysene-3a-carboxylic acid]", "EC50": 1.42}
{"smiles": "C=C(CNCCN1CCOCC1)[C@@H]1CC[C@]2(C(=O)O)CC[C@]3(C)[C@H](CC[C@@H]4[C@@]5(C)CC=C(c6ccc(C(=O)O)cc6)C(C)(C)[C@@H]5CC[C@]43C)[C@@H]12", "note": "[Example 1, (1R,3aS,5aR,5bR,7aR,11aS,11bR,13aR,13bS)-9-(4-carboxyphenyl)-5a,5b,8,8,11a-pentamethyl-1-(3-(2-morpholinoethylamino)prop-1-en-2-yl)-2,3,3a,4,5,5a,5b,6,7,7a,8,11,11a,11b,12,13,13a,13b-octadecahydro-1H-cyclopenta[a]chrysene-3a-carboxylic acid]", "EC50": 40}
{"smiles": "CC1([C@@H]2CC[C@]3(NC(=O)CN4CCS(=O)(=O)CC4)CC[C@]4(C)[C@H](CC[C@@H]5[C@@]6(C)CC=C(c7ccc(C(=O)O)cc7)C(C)(C)[C@@H]6CC[C@]54C)[C@@H]23)CC1", "note": "[Example B51, 4-((1R,3aS,5aR,5bR,7aR,11aS,11bR,13aR,13bR)-3a-(2-(1,1-dioxidothiomorpholino)acetamido)-5a,5b,8,8,11a-pentamethyl-1-(1-methylcyclopropyl)-2,3,3a,4,5,5a,5b,6,7,7a,8,11,11a,11b,12,13,13a,13b-octadecahydro-1H-cyclopenta[a]chrysen-9-yl)benzoic acid]", "EC50": 1.1}
{"smiles": "CC(=CC(=O)O)[C@@H]1CC[C@]2(C(=O)NCCN(C)C)CC[C@]3(C)[C@H](CC[C@@H]4[C@@]5(C)CC[C@H](c6ccc(C(=O)O)cc6)C(C)(C)[C@@H]5CC[C@]43C)[C@@H]12", "note": "[Example 19, 4-((1R,3aS,5aR,5bR,7aS,9S,11aS,11bR,13aR,13bR)-1-(1-carboxyprop-1-en-2-yl)-3a-((2-(dimethylamino)ethyl)carbamoyl)-5a,5b,8,8,11a-pentamethylicosahydro-1H-cyclopenta[a]chrysen-9-yl)benzoic acid]", "EC50": 20}
{"smiles": "CC(C)(C)OC(=O)N[C@@H]1CC[C@]2(C(=O)O)CC[C@]3(C)[C@H](CC[C@@H]4[C@@]5(C)CC=C(C6=CCC(C(=O)O)CC6)C(C)(C)[C@@H]5CC[C@]43C)[C@@H]12", "note": "(stereo partly drawn) [Example A8, (1R,3aR,5aR,5bR,7aR,11aS,11bR,13aR,13bR)-1-((tert-butoxycarbonyl)amino)-9-(4-carboxycyclohex-1-en-1-yl)-5a,5b,8,8,11a-pentamethyl-2,3,3a,4,5,5a,5b,6,7,7a,8,11,11a,11b,12,13,13a,13b-octadecahydro-1H-cyclopenta[a]chrysene-3a-carboxylic acid]", "EC50": 6.56}
{"smiles": "C=C(CN(C)C)[C@@H]1CC[C@]2(C(=O)NCCN(C)C)CC[C@]3(C)[C@H](CC[C@@H]4[C@@]5(C)CC=C(c6ccc(C(=O)O)cc6)C(C)(C)[C@@H]5CC[C@]43C)[C@@H]12", "note": "[Example 7, 4-((1R,3aS,5aR,5bR,7aR,11aS,11bR,13aR,13bS)-3a-(2-(dimethylamino)ethylcarbamoyl)-1-(3-(dimethylamino)prop-1-en-2-yl)-5a,5b,8,8,11a-pentamethyl-2,3,3a,4,5,5a,5b,6,7,7a,8,11,11a,11b,12,13,13a,13b-octadecahydro-1H-cyclopenta[a]chrysen-9-yl)benzoic acid]", "EC50": 0.54}
{"smiles": "CC1([C@@H]2CC[C@]3(NCCN4CCC(S(C)(=O)=O)CC4)CC[C@]4(C)[C@H](CC[C@@H]5[C@@]6(C)CC=C(c7ccc(C(=O)O)cc7)C(C)(C)[C@@H]6CC[C@]54C)[C@@H]23)CC1", "note": "[Example B53, 4-((1R,3aS,5aR,5bR,7aR,11aS,11bR,13aR,13bR)-5a,5b,8,8,11a-pentamethyl-1-(1-methylcyclopropyl)-3a-(2-(4-(methylsulfonyl)piperidin-1-yl)ethylamino)-2,3,3a,4,5,5a,5b,6,7,7a,8,11,11a,11b,12,13,13a,13b-octadecahydro-1H-cyclopenta[a]chrysen-9-yl)benzoic acid]", "EC50": 1.03}
